Test results taken from US9126984B2, “4-(indol-3-yl)-pyrazole derivatives, pharmaceutical compositions and methods for use” (ITEOS THERAPEUTICS, priority 2013, dated 2015).

Key:
[1] = molecular target: T1, human recombinant TDO2 enzyme (Homo sapiens, UniProt P48775); assay: Assay for TDO2 enzymatic activity determination; type: biochemical; conditions: human recombinant TDO2, L-Trp 1 mM, room temperature one hour, kynurenine absorbance at 480 nm
T1 construct: made in house
Procedure: To measure the TDO2 activity, the reaction mixture contained (final concentrations) potassium phosphate buffer (50 mM, pH 7.5), ascorbic acid (0.25 M), methylene blue (0.125 μM), catalase (40 units/mL, from bovine liver, Sigma), and human recombinant TDO2 enzyme (prepared as described in Dolusic et al. J. Med. Chem.; 2011, 54, 5320-5334; 0.9 μg) without or with the compounds of the present invention embodiments at the indicated concentrations (total volume 112.5 μL). The reaction was initiated by the addition of 37.5 μL of L-Trp (final concentration 1 mM) at room temperature. The reaction was conducted at room temperature during one hour and stopped by the addition of 30 μL of 30% (w/v) trichloroacetic acid.
To convert N-formylkynurenine into kynurenine, the reaction mixture was incubated at 65° C. for 30 min. Then 150 μL of the reaction mixture was mixed with 120 μL, of 2.5% (w/v) 4-(dimethylamino)-benzaldehyde in acetic acid and incubated for 5 min at room temperature. Kynurenine concentrations were determined by measuring the absorbance at 480 nm. A standard curve was made with pure kynurenine. The TDO activity was measured as described above using ten serial concentrations of certain embodiments of the compounds of the present invention. Data were fitted using the Prism software (GraphPad Software, Inc.).

[2] = molecular target: T2, murine mastocytoma P815 cells overexpressing hTDO2 (Homo sapiens, UniProt P48775); assay: Cellular assay for TDO2 activity determination; type: cell-based; conditions: P815 cells overexpressing hTDO2, overnight incubation at 37° C., kynurenine absorbance at 480 nm
T2 construct: expressed in transfected cells; host or cells: murine mastocytoma P815 cells
Procedure: The assay was performed in 96-well flat bottom plates seeded with murine mastocytoma P815 cells overexpressing hTDO2 (prepared as described in Pilotte et al., PNAS, 2012, 109(7), 2497-2502), at a concentration of 5×10^4 cells/well in a final volume of 200 μL. To determine TDO or IDO activity, the cells were incubated overnight at 37° C. at 5% CO2 in IMDM (Invitrogen) supplemented with 2% FBS and 2% penicillin/streptomycin in the presence of the compounds of the present invention, at different concentrations.
The plates were then centrifuged 5 min at 1000 rpm, and 100 μL of the supernatant were collected in a conical plate, 30 uL of TCA 30% were added and a further centrifugated at 3000×g for 10 minutes. 100 μL of the supernatant were collected in a flat bottomed plate and 100 μL of 2% (w/v) 4-(dimethylamino)-benzaldehyde in acetic acid and incubated for 5 min at room temperature. Kynurenine concentrations were determined by measuring the absorbance at 480 nm. A standard curve was made with pure kynurenine. The TDO activity was measured as described above using ten serial concentrations of the compounds of the present invention. Data were fitted using the Prism software (GraphPad Software, Inc.).

T2 sequence (P48775 whole entry): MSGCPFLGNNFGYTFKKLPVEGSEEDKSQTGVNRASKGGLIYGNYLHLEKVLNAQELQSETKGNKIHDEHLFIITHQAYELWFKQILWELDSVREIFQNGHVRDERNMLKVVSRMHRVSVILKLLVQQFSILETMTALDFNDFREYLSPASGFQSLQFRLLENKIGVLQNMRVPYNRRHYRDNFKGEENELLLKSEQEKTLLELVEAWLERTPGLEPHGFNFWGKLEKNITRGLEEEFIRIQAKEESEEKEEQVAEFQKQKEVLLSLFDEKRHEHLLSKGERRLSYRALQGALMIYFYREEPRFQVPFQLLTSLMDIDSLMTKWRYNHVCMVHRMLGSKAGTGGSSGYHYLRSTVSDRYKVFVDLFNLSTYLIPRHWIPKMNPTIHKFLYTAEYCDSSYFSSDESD
T1 sequence (P48775 whole entry): as above

IC50 [1] [nM]	melting point [°C]	IC50 [2] [nM]	SMILES
1000 to 10000	99.9 to 102.1	–	O=C(CO)N1CCC(n2cc(-c3c[nH]c4cc(F)ccc34)cn2)CC1 [Example 84, 1-(4-(4-(6-fluoro-1H-indol-3-yl)-1H-pyrazol-1-yl)piperidin-1-yl)-2-hydroxyethanone]
1000 to 10000	170.6 to 171.9	–	CS(=O)(=O)CCn1cc(-c2c[nH]c3cc(F)c(F)cc23)cn1 [Example 32, 5,6-difluoro-3-(1-(2-(methylsulfonyl)ethyl)-1H-pyrazol-4-yl)-1H-indole]
1000 to 10000	210.2 to 211	–	CC(C)C(=O)N1CCC(n2cc(-c3c[nH]c4cc(F)ccc34)cn2)CC1 [Example 86, 1-(4-(4-(6-fluoro-1H-indol-3-yl)-1H-pyrazol-1-yl)piperidin-1-yl)-2-methylpropan-1-one]
10000 to 100000	226 to 228	–	O=C(O)CCC(=O)N1CCC(n2cc(-c3c[nH]c4cc(F)ccc34)cn2)CC1 [Example 80, 4-(4-(4-(6-fluoro-1H-indol-3-yl)-1H-pyrazol-1-yl)piperidin-1-yl)-4-oxobutanoic acid]
1000 to 10000	193.7 to 196.1	–	CN(C)CC(=O)N1CCC(n2cc(-c3c[nH]c4cc(F)ccc34)cn2)CC1 [Example 83, 2-(dimethylamino)-1-(4-(4-(6-fluoro-1H-indol-3-yl)-1H-pyrazol-1-yl)piperidin-1-yl)ethanone]
< 1000	–	< 1000	Fc1ccc2c(-c3cnn(CC4CNC4)c3)c[nH]c2c1 [Example 6, 3-(1-(azetidin-3-ylmethyl)-1H-pyrazol-4-yl)-6-fluoro-1H-indole]
1000 to 10000	–	< 1000	Cc1c(-c2c[nH]c3cc(F)ccc23)cnn1C (single isomer, unassigned) [Example 74, 3-(1,5-dimethyl-1H-pyrazol-4-yl)-6-fluoro-1H-indole]
1000 to 10000	–	< 1000	CS(=O)(=O)NCCn1cc(-c2c[nH]c3cc(F)ccc23)cn1 [Example 25, N-(2-(4-(6-fluoro-1H-indol-3-yl)-1H-pyrazol-1-yl)ethyl)methanesulfonamide]
1000 to 10000	231 to 232	–	CC(C)(C)C(=O)N1CCC(n2cc(-c3c[nH]c4cc(F)ccc34)cn2)CC1 [Example 87, 1-(4-(4-(6-fluoro-1H-indol-3-yl)-1H-pyrazol-1-yl)piperidin-1-yl)-2,2-dimethylpropan-1-one]
1000 to 10000	–	1000 to 10000	Fc1ccc2c(-c3cnn(CCN4CCOCC4)c3)c[nH]c2c1 [Example 20, 4-(2-(4-(6-fluoro-1H-indol-3-yl)-1H-pyrazol-1-yl)ethyl)morpholine]
< 1000	–	< 1000	Fc1ccc2c(-c3cn[nH]c3)c[nH]c2c1 [Example 70, 6-fluoro-3-(1H-pyrazol-4-yl)-1H-indole]
< 1000	–	< 1000	Cn1cc(-c2c[nH]c3cc(F)ccc23)cn1 [Example 73, 6-fluoro-3-(1-methyl-1H-pyrazol-4-yl)-1H-indole]
1000 to 10000	–	< 1000	Fc1ccc2c(-c3cnn(CCN4CCNCC4)c3)c[nH]c2c1 [Example 27, 6-fluoro-3-(1-(2-(piperazin-1-yl)ethyl)-1H-pyrazol-4-yl)-1H-indole]
1000 to 10000	–	1000 to 10000	COCC(=O)N1CCC(n2cc(-c3c[nH]c4cc(F)ccc34)cn2)CC1 [Example 85, 1-(4-(4-(6-fluoro-1H-indol-3-yl)-1H-pyrazol-1-yl)piperidin-1-yl)-2-methoxyethanone]
1000 to 10000	–	1000 to 10000	CNC(=O)Cn1cc(-c2c[nH]c3cc(F)ccc23)cn1 [Example 39, 2-(4-(6-fluoro-1H-indol-3-yl)-1H-pyrazol-1-yl)-N-methylacetamide]
1000 to 10000	–	< 1000	CN1CCN(CCn2cc(-c3c[nH]c4cc(F)ccc34)cn2)CC1 [Example 19, 6-fluoro-3-(1-(2-(4-methylpiperazin-1-yl)ethyl)-1H-pyrazol-4-yl)-1H-indole]
1000 to 10000	–	< 1000	CC(Cn1cc(-c2c[nH]c3cc(F)ccc23)cn1)C(N)=O (single isomer, unassigned) [Example 36, 3-(4-(6-fluoro-1H-indol-3-yl)-1H-pyrazol-1-yl)-2-methylpropanamide]
< 1000	–	< 1000	Fc1ccc2c(-c3cnn(-c4ccccn4)c3)c[nH]c2c1 [Example 111, 6-fluoro-3-(1-(pyridin-2-yl)-1H-pyrazol-4-yl)-1H-indole]
< 1000	–	< 1000	Fc1ccc2c(-c3cnn(C4CNC4)c3)c[nH]c2c1 [Example 2, 3-(1-(azetidin-3-yl)-1H-pyrazol-4-yl)-6-fluoro-1H-indole]

More lines, now with the values behind:

SMILES	IC50 [1] [nM]	melting point [°C]	IC50 [2] [nM]
CC(=O)NCCn1cc(-c2c[nH]c3cc(F)ccc23)cn1 [Example 21, N-(2-(4-(6-fluoro-1H-indol-3-yl)-1H-pyrazol-1-yl)ethyl)acetamide]	1000 to 10000	179.5 to 180.8	–
NC(=O)Cn1cc(-c2c[nH]c3cc(F)ccc23)cn1 [Example 38, 2-(4-(6-fluoro-1H-indol-3-yl)-1H-pyrazol-1-yl)acetamide]	1000 to 10000	–	1000 to 10000
Fc1ccc2c(-c3cnn(CC4CCN(C5CC5)CC4)c3)c[nH]c2c1 [Example 52, 3-(1-((1-cyclopropylpiperidin-4-yl)methyl)-1H-pyrazol-4-yl)-6-fluoro-1H-indole]	< 1000	–	< 1000
CN(C)C(=O)Cn1cc(-c2c[nH]c3cc(F)ccc23)cn1 [Example 40, 2-(4-(6-fluoro-1H-indol-3-yl)-1H-pyrazol-1-yl)-N,N-dimethylacetamide]	1000 to 10000	–	1000 to 10000
CN1CCC(Cn2cc(-c3c[nH]c4cc(F)ccc34)cn2)CC1 [Example 53, 6-fluoro-3-(1-((1-methylpiperidin-4-yl)methyl)-1H-pyrazol-4-yl)-1H-indole]	< 1000	–	< 1000
Nc1ccc(-n2cc(-c3c[nH]c4cc(F)ccc34)cn2)nn1 [Example 109, 6-(4-(6-fluoro-1H-indol-3-yl)-1H-pyrazol-1-yl)pyridazin-3-amine]	1000 to 10000	–	< 1000
Fc1ccc2c(-c3cnn(-c4ccncc4)c3)c[nH]c2c1 [Example 113, 6-fluoro-3-(1-(pyridin-4-yl)-1H-pyrazol-4-yl)-1H-indole]	< 1000	–	< 1000
FCCN1CCC(Cn2cc(-c3c[nH]c4cc(F)ccc34)cn2)CC1 [Example 46, 6-fluoro-3-(1-((1-(2-fluoroethyl)piperidin-4-yl)methyl)-1H-pyrazol-4-yl)-1H-indole]	< 1000	–	< 1000
OC(CN1CCC(Cn2cc(-c3c[nH]c4cc(F)ccc34)cn2)CC1)C(F)(F)F (stereo not drawn) [Example 48, 1,1,1-trifluoro-3-(4-((4-(6-fluoro-1H-indol-3-yl)-1H-pyrazol-1-yl)methyl)piperidin-1-yl)propan-2-ol]	< 1000	–	< 1000
OCCn1cc(-c2c[nH]c3cc(F)ccc23)cn1 [Example 26, 2-(4-(6-fluoro-1H-indol-3-yl)-1H-pyrazol-1-yl)ethanol]	< 1000	–	< 1000
NC(=O)[C@H]1C[C@H](n2cc(-c3c[nH]c4cc(F)ccc34)cn2)C1 [Example 62, (1R,3R)-3-(4-(6-fluoro-1H-indol-3-yl)-1H-pyrazol-1-yl)cyclobutanecarboxamide]	1000 to 10000	–	1000 to 10000
CN(C)C(=O)N1CCC(n2cc(-c3c[nH]c4cc(F)ccc34)cn2)CC1 [Example 90, 4-(4-(6-fluoro-1H-indol-3-yl)-1H-pyrazol-1-yl)-N,N-dimethylpiperidine-1-carboxamide]	1000 to 10000	223 to 224.6	–
O[C@H]1CC[C@H](n2cc(-c3c[nH]c4cc(F)ccc34)cn2)CC1 [Example 69, (1R,4R)-4-(4-(6-fluoro-1H-indol-3-yl)-1H-pyrazol-1-yl)cyclohexanol]	1000 to 10000	–	1000 to 10000
CS(=O)(=O)N1CCC(Cn2cc(-c3c[nH]c4cc(F)ccc34)cn2)CC1 [Example 54, 6-fluoro-3-(1-((1-(methylsulfonyl)piperidin-4-yl)methyl)-1H-pyrazol-4-yl)-1H-indole]	1000 to 10000	–	1000 to 10000
